From patent US20080201790A1, “Method and product for regulating cell responsiveness to external signals” (priority 1993, published 2008)
Entries after “also recorded” stand apart in the source; their conditions may differ. Values belong to the compound of their own block, whether it stands above or below them.

How the values were obtained:
[1] = test system: 98 kD PC12 cell MEKK; assay: MEKK immunoprecipitate kinase assay from PC12 cells with kinase inactive MEK-1; assay type: cell-based; details: for MEKK activity after stimulation (in words): serum starved PC12 cells, 5 minutes
Experimental: Reactions were stopped by the addition of 2×SDS sample buffer (20 μl). The samples were boiled for 3 minutes and subjected to SDS-PAGE and autoradiography. Raf-B was immunoprecipitated from the same untreated and treated PC12 cell lysates as above with an antiserum to a COOH-terminal peptide of Raf-B (Santa Cruz Biotechnology, Inc.) and assayed similarly. Raf-1 was immunoprecipitated with an antiserum to the 12 COOH-terminal amino acids of Raf-1 (Santa Cruz Biotechnology, Inc.).
Data represent the relative magnitude of the response for each timepoint as quantitated by phosphorimager analysis of radioactive gels from a typical experiment.
Expression of N^17Ras was induced in PC12 clones stably transfected with the N^17Ras gene by the addition of dexamethasone to the starvation media. […] PC12 cell clones stably transfected with the N^17Ras gene are less responsive to EGF-mediated activation of MEKK activity than are wild type PC12 cells. […] MEKK activity in immunoprecipitates or column fractions was dissociable from that of EGF-stimulated c-Raf-1 and Raf-B activities.
To determine whether the growth factor-mediated activation of 98 kD PC12 cell MEKK was inhibited by PKA, forskolin was used to elevate intracellular cAMP and activate PKA. […] Raf-B activity was also assayed from the same cell lysates to test whether its regulation differed from that of MEKK. Raf-B was immunoprecipitated from the same cell lysates as described above and assayed for its ability to phosphorylate MEK-1 as described above.

[2] = test system: p42/p44 MAPK; assay: MAPK assay (DEAE-Sephacel, EGFR662-681 peptide) in L929 cells; assay type: cell-based, murine; details: L929 cells
Experimental: (§1) In panel A cells were treated for 10 minutes with the indicated concentration of TNFα. JNK activation was measured using a solid phase kinase assay resulting in phosphorylation of GST-Jun. In […] the time course of MAPK activation is shown. MAPK was isolated from cell lysates on DEAE sephacel columns and MAPK activation was measured by phosphorylation of the EGFR peptide substrate. Panel C depicts the concentration curve of MAPK activation by TNFα. Cells were treated with the indicated concentration of TNFα and MAPK was assayed.
FIG. 26 depicts the activation of MAPK by bFGF in L929 cells. Serum starved L929 cells were stimulated for 10 min with the indicated concentration of bFGF.
(§2) Cell lines and culture. L929 cells (ATCC CCL1 were maintained in Dulbecco's modified Eagle's medium with 5% newborn calf serum and 5% bovine calf serum (BCS) supplemented with 100 ug/ml streptomycin and 100 U/ml penicillin. The cells were grown in 10 cm dishes at 37° C. in 7.5% CO2. Cells were made quiescent where indicated by incubation in Dulbecco's modified Eagle's medium and 0.1% bovine serum albumin for 24 h. Recombinant murine TNFα and recombinant human bFGF (147aa) were from R&D Systems, Minneapolis, Minn. Cells were pretreated where indicated with the MEK-1 inhibitor PD#098059 (Parke-Davis Pharmaceutical Corp. Ann Arbor, Mich.) for 1 h at 37° C. Cells were stimulated by incubation with the indicated cytokine or growth factor for various times at 37° C. Stimulation was stopped by rinsing the plates twice with ice cold phosphate buffered saline (PBS) and lysing the cells in the appropriate lysis buffer. Cells were scraped from the plates and nuclei were pelleted for 10 min at 14,000 RPM in a microcentrifuge. JNK assay. JNK activity was measured using a solid state kinase assay in which glutathione S-transferase-c-Jun (1-79) (GST-JUN) cound to glutathione-Sepharose 4B beads was used to affinity purify JNK and then JNK activity was measured in an in vitro kinase assay using the sepharose bound GST-Jun as a substrate (Hibi, M., et al. (1993) Genes & Development 7:2135-2148). Stimulated or unstimulated cells were lysed in 0.5% Nonidet P-40, 20 mM HEPES pH 7.2, 100 mM NaCl, 2 mM dithiothreitol, 1 mM EDTA, 1.0 mM phenylmethylsulfonylfluoride, 1 μg/ml aprotinin and the nuclei pelleted. Lysates were normalized for protein content. JNK was affinity purified from 50-100 μg of cell lysate by the addition of 10 ul of GST-Jun sepharose slurry (2 μg GST-Jun). Binding to GST-Jun efficiently isolates the two major forms of JNK (p45 and p55) and under the conditions used JNK isolation was linear for 10-250 μg of cell lysate. The lysates were rotated at 4° C. for 1-3 h. Beads were washed twice in lysis buffer and then twice in PAN (10 mM PIPES, pH 7.0, 100 mM NaCl, 21 μg/ml aprotinin). Kinase reactions were carried out at 30° C. for 15 min in 20 mM Hepes pH 7.2, 20 mM β-glycerophosphate, 10 mM p-nitrophenyl phosphate, 10 mM MgCl2, 1 mM dithiothreitol, 50 μm sodium vanadate, 10 μCi γ^32P-ATP 4300 Ci/mmole. The kinase reaction was linear from 0-30 min. MAPK Assay MAPK activity was measured exactly as described previously (Gardner, A. M., et al. (1994) Meth. Enzymol. 238:258-270) with the exception that MonoQ FPLC fractionation was replaced by step elution from a DEAE-Sephacel column using 0.5 M NaCl in loading buffer. The eluate was assayed in triplicate using the epidermal growth factor receptor 662-681 peptide (EGFR662-681) as a selective substrate for MAPK activity (Heasley, L. E., et al. (1994) American Journal of Physiology (Renal Fluid Electrolyte Physiol. 36) 267:F366-F373). […] Cells were lysed by scraping in ice cold RIPA buffer (50 mM Tris-HCl, pH 7.2, 150 mM NaCl, 0.1% SDS, 0.5% sodium deoxycholate, 1.0% Triton X-100, 10 mM sodium pyrophosphate, 25 mM β-glycerophosphate, 2 mM sodium vanadate, 2.1 μg/ml aprotinin) and the nuclei were pelletted. […]

[3] = test system: Raf-B; assay: Raf-B immunoprecipitate kinase assay from PC12 cells with kinase inactive MEK-1; assay type: cell-based; details: PC12 cells, EGF 30 ng/ml 5 minutes
[4] = test system: L929 cells; assay: Propidium iodide staining of L929 clones with inducible N17 Ras or V12 Ras; assay type: cell-based, murine; details: IPTG-induced expression
Experimental: Ras expression was induced with 5 mM IPTG for 10 hours and cells were subsequently treated with 5 ng/ml TNFα in the presence or absence of 0.5 ng/ml bFGF for 16 hours. Cells were fixed and stained with propidium iodide. The percentage of apoptotic cells was calculated. Solid bars represent cells induced with IPTG; hatched bars, induced with IPTG and treated with TNFα; checked bars, induced with IPTG and treated with TNFα and bFGF.
Cell lines and culture. […] JNK activity was measured using a solid state kinase assay in which glutathione S-transferase-c-Jun (1-79) (GST-JUN) cound to glutathione-Sepharose 4B beads was used to affinity purify JNK and then JNK activity was measured in an in vitro kinase assay using the sepharose bound GST-Jun as a substrate (Hibi, M., et al. (1993) Genes & Development 7:2135-2148). […] MAPK Assay MAPK activity was measured exactly as described previously (Gardner, A. M., et al. (1994) Meth. Enzymol. 238:258-270) with the exception that MonoQ FPLC fractionation was replaced by step elution from a DEAE-Sephacel column using 0.5 M NaCl in loading buffer. […]

[5] = test system: JNK; assay: JNK solid state kinase assay (GST-Jun) in L929 cells; assay type: cell-based, murine; details: L929 cells
Experimental: as §1, §2

[6] = test system: GST-Ras^V12; assay: Direct binding of purified MEKKCOOH-His to GST-Ras^V12, read by phosphorylation of kinase inactive MEK1; details: 100 μM peptide, pre-incubation 1 hr at 4° C.
Description: A construct encoding the kinase domain of a Rat MEKK1 cDNA (95% identical to mouse MEKK1) with a N-terminal hexahistidine tag (referred to herein as MEKKCOOH-His; provided by Dr. Melanie Cobb, Department of Pharmacology, University of Texas Southwestern Medical School, Dallas, Tex.) was expressed in bacteria and soluble active enzyme was purified on Ni2+-NTA agarose according to the method generally described in Gardner et al. (Methods of Enzymology 238:258-270, 1994) Purified recombinant MEKKCOOH-His was incubated with either GST or GST-Ras^V12 in PAN buffer (10 mM PIPES [pH 7.0], 100 mM NaCl, 0.2 U/ml aprotinin) for 1 hr at 4° C. The agarose beads were pelleted and washed 3 times in PAN buffer. […] To test the direct interaction of MEKK1 with the effector domain of Ras, samples were prepared by pre-incubating the agarose beads with either 100 μM of Ras peptide consisting of residues 17-42 of H-Ras or 100 μM of Ras control peptide ([D-Arg^1,D-Phe^5,DTrp^7,9,Leu^11] substance P peptide for 1 hr at 4° C. prior to addition of the MEK1 substrate. A control reaction containing wild-type MEKK1 which autophosphorylates, served as a marker for the MEKK1 substrate. Reactions were terminated by addition of 5× Laemmlei SDS sample buffer, boiled and resolved by SDS-PAGE.

[7] = test system: Swiss 3T3 cells; assay: MEKKCOOH-induced cell death after nuclear microinjection of expression plasmids; assay type: cell-based
Experimental: Swiss 3T3 and REF52 cells were plated on acid-washed glass cover slips in Dulbecco's Modified Eagle's Medium (DMEM) and 10% bovine calf serum (BCS) or newborn calf serum (NCS). Cells were placed in DMEM/0.1% calf serum for overnight incubation prior to microinjection and used for injection at 50-70% confluence. Injections were performed with an Eppendorf automated microinjection system with needles pulled from glass capillaries on a vertical pipette puller (Kopf, Tujunga, Calif.). Cells were injected with pCMVβ-gal in the presence or absence of pCMV5MEKKCOOH or pCMV5BxBRaf at 20-100 ng/μl for each expression plasmid in 100 mM KC1, 5 mM NaPO4, pH 7.3. Following injection cells were placed in 1% NCS for 12-18 hr (Swiss 3T3) or 42 hr (REF52) prior to fixation with paraformaldehyde and staining. Similar results were obtained when cells were placed in 10% NCS after microinjection. Propidium iodide ([…]) was used to stain DNA. X-Gal reactions were performed for six hr.
Swiss 3T3 cells were microinjected with 100 ng/μl pCMVβ-gal and 20 ng/μl pCMV5MEKKCOOH. To label free DNA ends fixed and rehydrated cells were incubated with terminal deoxytransferase (TDT) and 10 nM biotin-dUTP following the manufacturer's instructions (Boehringer-Mannheim). Cells were stained with FITC-streptavidin to label DNA fragments. β-gal was detected using rabbit anti-p-gal antibody (Cappel Labs) and a rhodamine-labeled goat anti-rabbit antibody (Cappel Labs).
Seventeen hours after injection cells were fixed and stained for, β-galactosidase activity with X-Gal. Injected cells attached to the coverslip were scored as positive for cell death when they were highly condensed, small round cells.

[8] = 100 ng/μl plasmids, seventeen hours after injection, X-Gal

Compound: CCCCCCCCCCCCCC(=O)O[C@@H]1[C@@H](C)[C@@]2(O)[C@@H](C=C(CO)C[C@]3(O)C(=O)C(C)=C[C@@H]23)[C@H]2C(C)(C)[C@]12OC(C)=O [TPA, reference compound]
MEKK activity after stimulation (in words) [1]: also activated MEKK, although to a lesser degree than EGF

Compound: N17 Ras: Dominant negative Ha-ras (Asn 17), inhibitory Ras [reference compound]
effect on bFGF stimulation of MAPK activity [2]: significantly blunted bFGF stimulation of MAPK | effect on activation of Raf-B by EGF [3]: greatly reduced | effect on TNFα induced apoptosis ([4]; 5 ng/ml TNFα): did not affect | effect on ability of bFGF to protect against TNFα-mediated cell death ([4]; TNFα plus bFGF): markedly inhibit | effect on activation of MEKK by EGF ([1]; PC12 cells, EGF 30 ng/ml 5 minutes): inhibited the activation of MEKK by EGF | effect on TNFα stimulation of JNK [5]: had no effect on TNF stimulation of JNK

Compound: NGF: Nerve growth factor
MEKK activity after stimulation (in words) [1]: slight increase in MEKK activity; also recorded: also activated MEKK, although to a lesser degree than EGF

effect on binding of GST-Ras^V12(GTPγS) agarose to MEKKCOOH-His [6]: prevented the binding
Compound: Ras effector peptide: Ras peptide consisting of residues 17-42 of H-Ras (SALTIQLIQNHFVDEYDPTIEDSYRK; UniProt P01112 17-42, looked up, fragment)

effect on binding of GST-Ras^V12(GTPγS) agarose to MEKKCOOH-His [6]: able to bind
Compound: [D-Arg^1,D-Phe^5,D-Trp^7,9,Leu^11] substance P peptide [reference compound]

Compound: β-gal [reference compound]
Condensed Cells (number) [7, 8]: 4 | Condensed Cells (percent of cells injected) [7, 8]: (1%) | injected cells with an altered morphology ([7]; 48-72 hours post-injection): < 1%
